For data set [1], the target named is T1, interaction between human NCS1 and Ric8a (Homo sapiens, UniProt P62166).
T1 construct: The NCS1 construct was subcloned into pCDNA3.1; expressed in transfected cells; host or cells: HEK293
As to the kind of experiment: Coimmunoprecipitation interference test of the NCS1/Ric8a interaction in lysate of transfected HEK293 cells. In kind it is biochemical. The settings on record: HEK293 cells transfected with V5-Ric8a and NCS1; lysate incubated with compound; FIG. 2. The method, then: The DMSO lane represents a positive control of the interaction.
In order to check whether the interaction which has been previously detected (Romero-Pozuelo J et al. The guanine-exchange factor Ric8a binds to the Ca^2+ sensor NCS-1 to regulate synapse number and neurotransmitter release. J Cell Sci. 2014 Oct. 1; 127(Pt 19):4246-59) between the Drosophila Frq2 and Ric8a proteins, the coimmunoprecipitation of their human equivalents, NCS1 and Ric8a was tested. Human Ric8a was subcloned into nV5pCDNA3.1. The NCS1 construct was subcloned into pCDNA3.1. The cotransfections were carried out in HEK293 cells using the Superfect® (Qiagen®) reagent and lysed 48 hours later. Before its clarification, the lysates were incubated with the respective compound at 4° C. for the night (12 hours) with and without anti-V5 (Invitrogen®) or anti-NCS1 (Cell Signaling Technology®) antibodies as is indicated in each experiment. As a negative control, immunoprecipitations were carried out with an unrelated antibody. The following antibodies and dilutions were used with the Western blots: rabbit anti-NCS1 (1:1000) and mouse anti-V5 (1:2000). […] The Ric8a immunoprecipitation pulls NCS1 and vice versa. […]

The target in data set [2] is T2, Drosophila NCS-1 (Frq2) protein (Drosophila melanogaster, UniProt Q9VWX8).
T2 sequence (Q9VWX8 1-187): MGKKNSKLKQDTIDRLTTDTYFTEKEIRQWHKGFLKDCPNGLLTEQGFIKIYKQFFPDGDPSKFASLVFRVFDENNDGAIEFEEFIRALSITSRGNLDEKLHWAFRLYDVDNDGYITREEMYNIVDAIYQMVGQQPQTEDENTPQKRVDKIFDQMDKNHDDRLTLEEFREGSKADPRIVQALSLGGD
As to the kind of experiment: Crystallographic structure of the NCS-1 complex with FD44. In kind it is binding. The settings on record: 1.6 Å dataset, FIG. 4. An excerpt: FIG. 4 (A) Representation of the crystallographic structure of the NCS1/FD44 complex. The FD44 molecule is shown in sticks. The 2Fo-Fc map of the small molecule is shown at 1σ. (B) Representation of the electrostatic molecular surface of NCS1 bound to FD44 where the hydrophobic environment of FD44 is observed. (C) Detailed view of the amino acids in contact with FD44. The majority of the interactions are Van der Waals, except a strong hydrogen bond with T92, that is mediated by water molecule (with discontinuous black lines), and three weak hydrogen bonds where a C atom is the hydrogen donor and an O atom is the acceptor. (D) Close-up view of the cavity where FD44 is bound.
The purified Drosophila NCS-1 (Frq2) protein was dialyzed with water and concentrated to 10 mg ml-1 using a concentrator with a cut membrane of 10 kDa (Vivaspin®). 0.3 mg of FD44 were added to 250 μl of protein sample and incubated for 16 hours at 4° C. The insoluble fraction of the compound was separated by centrifugation. The preliminary crystallization experiments were carried out using the Innovadine® crystallization robot and commercial crystallization kits (Molecular Dimensions®, Qiagen®, Hampton Research® and Jena Bioscience®). […]

Data set [3] has as its system Drosophila fmr1 mutant and wild type larvae.
Source text: FIG. 3 A) volume of the neuromuscular plate normalized with respect to the wild type. Wt DMSO=wild type larvae grown in medium with DMSO carrier (200 micromolar), wt FD44=larvae grown in medium with FD44 dissolved in DMSO (200 micromolar), dFMRPmutDMSO=mutant larvae for the fmr1 gene grown in medium with DMSO, dFMRPmut FD44=mutant larvae grown in medium with FD44 (200 micromolar). B) Same genotypes computing the synapse number (immunopositive points for the nc82 monoclonal antibody). C) Same genotypes computing the number of collateral branches. D) Representative images of each genotype. Each image is an accumulation of all the confocal planes.
The mutating in the fmr1 gene corresponds to Fmr1^Δ50M # BL-6930 and the wild type corresponds to the Canton-S strain, all originating from the repository of the Bloomington Drosophila Stock Center. […] Once the medium had cooled, the vials were used normally for placing eggs and growing larvae at 25° C. until reaching the advanced LIII stage.
Reaching the advanced larva III stage, the animals were surgically processed to expose the neuromuscular junctures (NMJ) following the described method (Martin-Peña et al., Age-independent synaptogenesis by phosphoinositide 3 kinase. J Neurosci. 2006 Oct. 4; 26(40):10199-208). The nc82 antibody is a specific monoclonal for the Bruchpilot protein of Drosophila belonging to the CAST family of vertebrae and forms the presynaptic specialization. It was obtained from the Drosophila Hybridoma Bank (DSHB). The anti-HRP antibody produced in rabbits marks the neuronal membrane and was obtained from Jackson ImmunoResearch. A larval neuromuscular juncture was analyzed up to a total of 8-12 larvae per genotype to avoid growth artefacts. The serialized confocal sections of 1 micrometer thickness were analyzed and quantified using the Imaris® program.
The larval preparations were stained with the nc82 antibody to visualize the synapse and with the anti-HRP to visualize the membrane of the axon. Lastly, the synapse number was measured in images obtained in confocal microscopy and quantified by means of Imaris® software.

T1 sequence (P62166 2-190 limits assumed): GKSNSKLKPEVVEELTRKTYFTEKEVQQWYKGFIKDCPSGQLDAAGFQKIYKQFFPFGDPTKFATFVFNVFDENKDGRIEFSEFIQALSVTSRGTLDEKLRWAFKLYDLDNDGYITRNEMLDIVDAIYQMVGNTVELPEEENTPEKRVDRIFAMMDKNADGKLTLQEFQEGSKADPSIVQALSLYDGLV

Turning to `O=C(CN1CCCCC1)NN1c2ccccc2Sc2ccccc21` [FD44], the “inhibition of the interaction between human NCS1 and Ric8a (coimmunoprecipitation, Western blot)” value in data set [1] is listed as “effectively inhibits this interaction”. Also, the “binding mode in the NCS-1 crystal complex” value in data set [2] is “inserted in the N-terminal part of the elongated hydrophobic groove”. Besides, the “neuronal projection volume (volume of the neuromuscular plate)” value in data set [3] (fmr1 mutant larvae, 200 micromolar in culture medium, FIG. 3A) is on record as “reverts the neuronal projection volume to the normal levels of the controls”. The “synapse number (nc82 immunopositive points)” value in data set [3] (fmr1 mutant larvae, 200 micromolar in culture medium, FIG. 3B) is listed as “reversion in the mutant which has ingested FD44”. For the same molecule, the “effect on wild type control (volume of the neuromuscular plate)” value in data set [3] (in vivo) is given as “innocuous for the wild type control”. In addition, the “collateral branch number (neuritogenesis)” value in data set [3] (wild type and fmr1 mutant larvae, 200 micromolar in culture medium, FIG. 3C) is recorded as “does not show any change”.

The values are drawn from patent US20190076439A1, “AMINOPHENOTHIAZINES FOR MODULATING THE NUMBER OF SYNAPSES” (CONSEJO SUPERIOR DE INVESTIGACIONES CIENTIFICAS (CSIC), priority 2015, published 2019).
